The results in this text go back to patent US10894777B2, “TG2 inhibitor piperazine compounds and uses thereof” (UNIVERSITY OF OTTAWA, priority 2016, dated 2021).

For assay [1], the target named is T1, TG2 (Homo sapiens, UniProt P21980).
T1 sequence (P21980 1-687): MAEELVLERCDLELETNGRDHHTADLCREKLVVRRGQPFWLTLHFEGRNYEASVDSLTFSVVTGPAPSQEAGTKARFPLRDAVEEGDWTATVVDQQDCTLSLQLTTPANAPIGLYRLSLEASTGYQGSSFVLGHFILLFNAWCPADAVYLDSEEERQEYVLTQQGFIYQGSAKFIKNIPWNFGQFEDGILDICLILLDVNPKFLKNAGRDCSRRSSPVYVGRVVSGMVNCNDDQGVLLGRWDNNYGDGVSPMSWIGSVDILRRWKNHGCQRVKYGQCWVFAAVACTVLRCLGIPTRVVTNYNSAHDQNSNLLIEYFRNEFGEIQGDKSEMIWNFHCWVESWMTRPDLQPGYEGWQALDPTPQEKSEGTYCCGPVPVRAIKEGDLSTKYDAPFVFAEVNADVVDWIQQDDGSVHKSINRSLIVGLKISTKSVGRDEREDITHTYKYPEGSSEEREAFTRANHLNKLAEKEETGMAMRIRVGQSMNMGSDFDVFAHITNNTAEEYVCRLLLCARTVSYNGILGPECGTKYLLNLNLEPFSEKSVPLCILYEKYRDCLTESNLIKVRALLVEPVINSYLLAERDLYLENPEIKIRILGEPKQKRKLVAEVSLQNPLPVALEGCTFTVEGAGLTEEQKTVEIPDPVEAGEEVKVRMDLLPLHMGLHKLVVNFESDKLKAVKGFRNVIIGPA
In words: Colorimetric transamidase activity assay (AL5 substrate), hTG2. Type of assay: biochemical.
Experimental: In Vitro Assays. Colorimetric transamidase activity assay. The activities of hTG1, hTG2 and hTG6 were measured via a colorimetric assay using the chromogenic substrate Cbz-Glu(γ-p-nitrophenyl ester)Gly (AL5). The assay was conducted at 25° C. in 100 mM MOPS buffer (pH 6.5) containing 3.0 mM CaCl2 and 50 μM EDTA. […] A stock solution of AL5 was prepared in DMSO such that the final concentration of this co-solvent was constant at 2.5% v/v. Stock solutions of the inhibitors were made in the buffer system previously described. The reaction was initiated with the addition of 40-60 mU/mL of the respective enzyme (0.10 μM hTG1, 0.25 μM hTG2 or 0.32 μM hTG6). Product formation was monitored at 405 nm in a polystyrene 96-well microplate using a BioTek Synergy 4 plate reader. […] Observed first-order rate constants of inactivation (kobs) were determined from non-linear regression fit to a mono-exponential model (Equation 1) of the observed absorbance of the enzymatic hydrolysis product, p-nitrophenolate (pNP). […] Experiments were done in triplicate and variation between repeats was less than 30%.

For the next assay, the target named is hTG6 (Homo sapiens, UniProt O95932). In words: Colorimetric transamidase activity assay (AL5 substrate), hTG6. Type of assay: biochemical. As for the experimental part:
(§1) Selectivity of certain irreversible inhibitors over other members of the transglutaminase family was assessed. […] Inhibitors were tested using a continuous colorimetric assay (Leblanc, A. et al., Biochemistry (2001), 40 (28): 8335-8342) for hTG1 and hTG6 and a commercially available continuous fluorescent assay that utilizes a peptidic FRET quenched substrate (Oertel, K. et al., Anal. Biochem. (2007), 367 (2): 152-158; Király, R. et al., Amino Acids (2016), 48 (1): 31-40) for the other transglutaminases, FXIIIa and hTG3. The rate constant of enzyme inactivation (kobs) for a specific concentration of inhibitor was obtained using Kitz and Wilson conditions (Kitz, R. et al., J. Biol. Chem. (1962), 237: 3245-49). Inhibitor concentrations were adjusted to account for competition with substrates in each enzymatic reaction.
In Vitro Assays. Colorimetric transamidase activity assay.

For the next assay, the target named is T2, FXIIIa (Homo sapiens, UniProt P00488).
T2 construct: purchased Zedira
T2 sequence (P00488 39-732 limits assumed): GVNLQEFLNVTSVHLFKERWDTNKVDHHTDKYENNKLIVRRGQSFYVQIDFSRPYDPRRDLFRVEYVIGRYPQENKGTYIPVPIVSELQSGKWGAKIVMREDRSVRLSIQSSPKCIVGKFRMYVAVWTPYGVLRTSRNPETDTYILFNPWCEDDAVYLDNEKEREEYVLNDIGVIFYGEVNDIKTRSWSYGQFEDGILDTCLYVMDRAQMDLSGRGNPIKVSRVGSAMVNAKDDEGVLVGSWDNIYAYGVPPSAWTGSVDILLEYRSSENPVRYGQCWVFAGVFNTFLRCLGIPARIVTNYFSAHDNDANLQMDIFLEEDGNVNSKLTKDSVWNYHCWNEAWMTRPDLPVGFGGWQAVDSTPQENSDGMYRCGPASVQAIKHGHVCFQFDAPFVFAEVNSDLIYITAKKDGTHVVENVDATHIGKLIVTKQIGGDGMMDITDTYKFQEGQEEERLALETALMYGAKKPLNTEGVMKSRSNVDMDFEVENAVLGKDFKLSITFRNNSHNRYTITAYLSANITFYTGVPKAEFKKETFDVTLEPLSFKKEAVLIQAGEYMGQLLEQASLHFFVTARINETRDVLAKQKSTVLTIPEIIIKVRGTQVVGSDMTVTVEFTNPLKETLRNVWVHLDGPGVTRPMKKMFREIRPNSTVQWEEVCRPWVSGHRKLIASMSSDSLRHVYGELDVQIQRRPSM
In words: Fluorescence isopeptidase activity assay (A101 probe), FXIIIa. The assay is classed as biochemical. As for the experimental part: as §1
Fluorescence isopeptidase activity assay. The isopeptidase activity of pre-activated TG3a and FXIIIa (purchased from Zedira) was measured via a fluorescence-based assay (Király, R. et al., Amino Acids (2016), 48 (1): 31-40) using the commercially available peptidic FRET quenched probe A101 from Zedira. Briefly, the final concentration in the reaction mixture contained 50 mM Tris (pH 7.0), 10 mM CaCl2, 100 mM NaCl, 2.8 mM TCEP, 50 μM A101 and 14 mM H-Gly-OMe. The reaction was monitored at 25° C. using a BioTek Synergy 4 plate reader (Ex/Em: 318/413 nm).

For a further assay, the system named is U87 cells. In words: Agarose colony formation assay, U87 cells. The assay is classed as cell-based, human. To be noted: 10 μM, 2 weeks. As for the experimental part: (§2) Agarose colony formation assay. Agarose colony formation assay was conducted as described (Horman, S. R. et al., J. Biomol. Screen 18(10):1298-308, 2013; Zhang, K. et al., Tumour Biol. 35(3):2537-48, 2014) using 6-well plates and 5,000 cells in each well. 10 μM NC9 or DMSO was added to every layer at the start of the experiments. 2 mL liquid MEM containing 10 μM NC9 or DMSO was used to cover the agarose and it was changed 3 times a week. Colony growth was monitored every day and at the end of 10-15 days, the colonies were fixed with 4% paraformaldehyde, stained with 0.005% crystal violet, washed with PBS twice and 40 random pictures were taken from each treatment group. A person blinded for the treatments measured the area of the colonies using ImageJ program and the volumes were calculated from the area data under the assumption that the colonies are perfect spheres. The volumes were used to compare the effect of NC9 on colony growth.

The test system of another assay is 1321N cells. Description: Agarose colony formation assay, TG2-null 1321N cells. The assay is classed as cell-based, human. The settings on record: 10 μM, 2 weeks. As for the experimental part:
as §2

The target of assay [2] is T1, TG2. Description: In situ transglutaminase assay, ionomycin-activated, GBM cell lines. The assay is classed as cell-based. To be noted: 10 μM; for ionomycin-activated in situ transamidating activity of TG2: U87 cells, 1 h pretreatment, 1 μM ionomycin 3 h. Also noted: endogenous in cells. As for the experimental part: In situ transglutaminase assay. In situ transamidating activity measurement was conducted as described previously (Gundemir, S. and Johnson, G. V., PLoS ONE 4(7):e6123, 2009) with slight modifications. […] In a high protein binding 96-well plate (Falcon), 10 μg of protein was loaded in a total of 50 μL homogenization buffer and the plate was incubated at 4° C. overnight. The next day, 200 μL of blocking buffer (5% BSA, 0.01% Tween 20 in borate saline [100 mM boric acid, 20 mM Na-borate and 0.76 mM NaCl]) was added to each sample and the plate was incubated at 37° C. for 1 h. Each well was then rinsed 3 times with rinsing buffer (1% BSA, 0.01% Tween 20 in borate saline) and incubated with 1 μg/μL Horseradish peroxidase conjugated neutravidin (Pierce) in a total of 100 μL rinsing buffer at room temperature for 1 h. […] After 20 minutes, the reaction was stopped by addition of 50 μL of 1 M sulfuric acid and read at 493 nm wavelength.

The mark [3] stands for this setting: Table 9, Kitz and Wilson conditions.

Chain of hTG6 (O95932 whole entry): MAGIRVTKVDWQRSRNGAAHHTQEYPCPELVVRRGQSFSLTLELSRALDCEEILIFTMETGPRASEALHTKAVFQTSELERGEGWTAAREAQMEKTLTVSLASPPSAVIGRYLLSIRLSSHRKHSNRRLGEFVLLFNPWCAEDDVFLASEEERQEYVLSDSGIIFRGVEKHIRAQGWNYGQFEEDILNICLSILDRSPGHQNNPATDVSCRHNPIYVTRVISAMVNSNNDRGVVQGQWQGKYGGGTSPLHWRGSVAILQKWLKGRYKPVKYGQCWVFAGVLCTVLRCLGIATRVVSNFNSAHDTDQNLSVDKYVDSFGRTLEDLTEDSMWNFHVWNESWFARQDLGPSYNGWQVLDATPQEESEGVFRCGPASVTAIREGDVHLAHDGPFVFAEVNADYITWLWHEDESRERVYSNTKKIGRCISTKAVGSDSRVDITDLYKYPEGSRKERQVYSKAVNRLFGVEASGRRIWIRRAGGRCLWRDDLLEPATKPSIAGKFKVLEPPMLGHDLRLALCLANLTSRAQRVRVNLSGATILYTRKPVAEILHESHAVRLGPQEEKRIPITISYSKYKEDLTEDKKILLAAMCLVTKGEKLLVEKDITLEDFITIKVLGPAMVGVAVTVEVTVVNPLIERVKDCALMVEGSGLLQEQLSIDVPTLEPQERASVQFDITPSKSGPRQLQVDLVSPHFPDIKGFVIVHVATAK

`C=CC(=O)NCCCC[C@H](NC(=O)OCc1ccccc1)C(=O)NCCOCCOCCNS(=O)(=O)c1cccc2c(N(C)C)cccc12` [NC9]: at TG2 [1] (Table 9, Kitz and Wilson conditions, inhibitor concentration adjusted for competition with substrate), the “kobs (10^−3 min^−1), TG2” value is recorded as 390 ± 49 10^−3 min^−1. Also, the “kobs (10^−3 min^−1), TG6” value at hTG6 (setting [3]) was 6.16 ± 0.14 10^−3 min^−1. The “kobs (10^−3 min^−1), FXIIIa” value at FXIIIa (setting [3]) is reported as 5.91 ± 1.59 10^−3 min^−1. Besides, the “colony growth, U87” value with U87 cells is reported as “significantly reduced the growth”. In addition, the “colony growth, 1321N” value in the assay on 1321N cells is listed as “no effect”. Besides, the “in situ transamidation activity of TG2 induced by ionomycin” value at TG2 [2] (U87, 1321N, U251, T98G cell lines) was “completely inhibited”. For the same compound, the “ionomycin-activated in situ transamidating activity of TG2” value (“ionomycin-activated” below) on TG2 [2] was “inhibit ionomycin-activated transamidating activity of TG2”.

As for `C=CC(=O)NCCCC[C@H](NC(=O)OCc1ccccc1)C(=O)N1CCN(S(=O)(=O)c2cccc3c(N(C)C)cccc23)CC1` [VA4, (S)-benzyl(6-acrylamido-1-(4-((5-(dimethylamino)naphthalen-1-yl)sulfonyl)piperazin-1-yl)-1-oxohexan-2-yl)carbamate], the “reduction in the inhibition binding constant” value at TG2 [1] (compared to NC9) is reported as “greater than two-fold reduction”. For the same compound, the “inhibition of hTG6” value against hTG6 is recorded as “no inhibition was observed”. For the same compound, at FXIIIa (from kobs), the “less reactive with FXIIIa compared to hTG2” value was 80 fold. In the assay on U87 cells, the “colony growth, U87” value was “inhibited colony growth”. Moreover, the “ionomycin-activated” value on TG2 [2] is listed as “inhibit ionomycin-activated transamidating activity of TG2”.

For `C=CC(=O)NCCCC[C@H](NC(=O)OCc1ccccc1)C(=O)N1CCN(C(=O)c2cc3ccc(O)cc3oc2=O)CC1` [VA5, (S)-Benzyl(6-acrylamido-1-(4-(7-hydroxy-2-oxo-2H-chromene-3-carbonyl)piperazin-1-yl)-1-oxohexan-2-yl)carbamate], the kinact – broadly, the rate constant of inactivation at saturating inhibitor – at TG2 [1] (Table 8, read-out: kinact (converted)) is 0.0115 s⁻¹. Also, at TG2 [1] (read-out: kinact/KI (10^3M^−1 min^−1), Table 8), the kinact/KI is 1040 M⁻¹ s⁻¹. Also, in the assay on U87 cells, the “colony growth, U87” value was “promoted it”. In addition, the “ionomycin-activated” value on TG2 [2] is on record as “inhibit ionomycin-activated transamidating activity of TG2”.
